# Laboratory results reported in patent US10669287B2, “Curcumin-boron complex and pharmaceutical containing same” (JAPAN SCIENCE AND TECHNOLOGY AGENCY, priority 2016, dated 2020).
# Entries after “also recorded” stand apart in the source; their conditions may differ. Like-named read-outs stand apart in the source and are kept apart here.
# How the values were obtained:
# [1] = Oxygenation of benzoylmethionine in glycerol/water (LC/MS), Test Example 4; conditions: compound 2 μM, benzoylmethionine 2000 μM, glycerol/water 0:100 to 50:50, LED 730 nm, room temperature
# Method: The compound K (2 μM) was added to glycerol/water (0:100, 10:90, 30:70, 50:50) dissolving benzoylmethionine (2000 μM) therein, and the resultant was subjected to LED irradiation (wavelength: 730 nm) at room temperature, and thereafter the reaction was tracked by using LC/MS (ESI-Q).
# Aβ1-42 [2] = target: T1, Aβ1-42 (Homo sapiens, UniProt P05067); experiment: Degree of oxygenation of pre-aggregated Aβ1-42 (MALDI-TOF MS), Test Example 10; type: biochemical; conditions: pre-aggregated Aβ1-42 20 μM, catalyst 2 μM, phosphate buffer pH 7.4, 660 nm, 37° C., 30 minutes
# T1 construct: phosphate buffer (pH 7.4)/cell culture solution (containing 0.1% horse serum) (1:3) containing Aβ1-42 (10 μM)
# T1 sequence (P05067 672-713): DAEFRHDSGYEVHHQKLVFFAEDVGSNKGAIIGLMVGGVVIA
# Method: Aβ1-42 isopeptide (concentration: 250 μM in 0.1% aqueous solution of trifluoroacetic acid), angiotensin IV (200 μM aqueous solution), Met-enkephalin (200 μM aqueous solution), and somatostatin (200 μM aqueous solution) were added to a phosphate buffer or phosphate buffer saline (pH 7.4) (with 0.1 M aqueous solution of sodium hydroxide, as necessary) so that a final peptide concentration of 20 μM or 40 μM (pH 7.4) was reached. Before being subjected to oxygenation reaction, the Aβ1-42 solution was incubated at 37° C. for 1 to 3 hours. The phosphate buffer containing 40 μM of Aβ was diluted with a Dulbecco's modified Eagle's medium (DMEM, Life Technologies) containing 0.1% horse serum and buffered with 25 mM of 4-(2-hydroxyethyl)-1-piperazineethanesulfonic acid (HEPES).
# Solutions of the compounds with a final concentration of 2 μM were used for evaluation of oxygenation of Aβ1-42. Solutions of the compounds with a final concentration of 5 μM were used for evaluation of peptide selectivity. Each mixture was subjected to light irradiation with an LED (wavelength: 500, 660, or 780 nm) at a distance of approximately 5 to 10 cm at room temperature. A control group without light irradiation was additionally prepared. Reaction was analyzed through monitor analysis with a MALDI-TOF MS. Degree of oxygenation was determined as a ratio: degree of oxygenation (%)=(total of MS intensities for n[O] adducts)/(MS intensity for native+total of MS intensities for n[O] adducts)×100. Aliquots of each reaction solution were desalted with a ZipTip U-C18 (Merck Millipore), as necessary, before mass spectrometry.
# a: A phosphate buffer (pH 7.4) solution containing pre-aggregated Aβ1-42 (20 μM, incubated at 37° C. for 3 hours) and a catalyst (2 μM) was subjected to light irradiation (wavelength: 660 nm) at 37° C. for 30 minutes. Thereafter, the reaction mixture was analyzed by using a MALDI-TOF MS.
# a: A phosphate buffer (pH 7.4) containing pre-aggregated Aβ1-42 (20 μM, obtained through incubation at 37° C. for 3 hours) and a catalyst (2 μM) were subjected to light irradiation at 780 nm (14 mW) at 37° C. for 30 minutes. The reaction mixture was analyzed by using a MALDI-TOF MS.
# PC 12 cells [3] = type: cell-based; conditions: 5 minutes then 48 hours, n=5, mean±SEM, Table 1
# Method: Rat pheochromocytoma PC 12 cells were suspended with DMEM containing 5% horse serum and 10% fetal bovine serum, seeded in a poly-D-lysine-coated 96-well plate at a concentration of 10,000 cells per well, and incubated in a 5% carbon dioxide atmosphere at 37° C. for 3 days. After the solvent was removed, the cells were washed with 150 μL of serum-free DMEM, and DMEM (75 μL) containing 0.1% horse serum was added thereto. Thereafter, the 96-well plate was incubated in a 5% carbon dioxide atmosphere at 37° C. for 1 day for use in oxygenation reaction. In oxygenation reaction, the compound E (100 μM dimethyl sulfoxide solution) was added to a phosphate buffer saline containing Aβ (aggregated in advance for 3 hours, 40 μM) and 25 μL of the above cell solution (final concentration of Aβ: 10 μM, final concentration of compound E: 1 μM). The mixture was irradiated with an LED (wavelength: 780 nm) at a distance of approximately 5 cm at 37° C. for 5 minutes. The cells were incubated in a 5% carbon dioxide atmosphere at 37° C. for 48 hours. The cell viability was measured by using the Cell Count Reagent SF (NACALAI TESQUE, INC., Kyoto, Japan) with WST-8 (2-(2-methoxy-4-nitrophenyl)-3-(4-nitrophenyl)-5-(2,4-disulfophenyl)-2H-tetrazolium).
# b: LC50 (dark) indicates the toxicity of a compound itself, and LC50 (light) indicates the phototoxicity of a compound. The PC 12 cells were placed in dark or subjected to photocatalytic treatment under light irradiation (wavelength: 660 nm), and incubated at 37° C. for 5 minutes, and then in a 5% carbon dioxide atmosphere at 37° C. for 48 hours, for which the cell viability was analyzed (n=5, mean±SEM).
# b: The PC 12 cells were treated together with a photocatalyst (1 μM) at 37° C. for 5 minutes in dark or under light irradiation (wavelength: 780 nm), and thereafter the cell viability was analyzed (n=3, mean±SEM).
# Aβ1-42 [4] = target: T1, Aβ1-42; experiment: In vitro oxygenation experiment using Aβ1-42 as a substrate (MALDI-TOF MS), Test Example 1; type: biochemical; conditions: test compound 1 μM, Aβ1-42 10 μM, LED irradiation at 730 nm, 37° C.
# Method: An in vitro oxygenation experiment using Aβ1-42 as a substrate was conducted to confirm that each of the inventive compounds actually have Aβ oxygenation activity. A test compound (1 μM in each case) was added to phosphate buffer (pH 7.4)/cell culture solution (containing 0.1% horse serum) (1:3) containing Aβ1-42 (10 μM), and incubated under LED irradiation (wavelength: 660 nm, 730 nm) at 37° C., and then the reaction was tracked by using a mass spectrometer (MALDI-TOF MS). The native Aβ1-42 and the Na^+ adduct were mainly observed before light irradiation. After light irradiation, an ion peak indicating the presence of the oxygenated form was observed over time (FIG. 1, FIG. 2).
# [5] = Maximum wavelength λmax of photocatalysts; type: physicochemical; conditions: Table 1
# PC 12 cells [6] = experiment: Cytotoxicity under light irradiation, WST-8 cell viability, Test Example 2; type: cell-based, rat; conditions: LED 660 nm, 10 mW, 5 minutes, then 48 hours
# Method: A culture medium for rat adrenal medulla-derived pheochromocytoma PC 12 cells (purchased from RIKEN, Japan) seeded on a poly-D-lysine-coated 96-well plate was replaced with 75 μL of a Dulbecco's modified Eagle's medium containing 0.1% horse serum, and the culture was incubated in a 5% CO2 atmosphere at 37° C. for 1 day, and 25 μL of a phosphate buffer saline (pH 7.4) containing a inventive compound was then added thereto. Thereafter, the mixed solution was incubated under LED irradiation (wavelength: 660 nm, 10 mW) (without light irradiation for dark) at 37° C. for 5 minutes. Further, the cell culture plate containing the reaction solution was incubated in a 5% CO2 atmosphere at 37° C. for 48 hours. Finally, the Cell Count Reagent SF (10 μL: purchased from NACALAI TESQUE, INC.) containing WST-8 was added, and the culture was incubated in a 5% CO2 atmosphere at 37° C. for 3 hours, and thereafter the cell viability was determined from the absorbance at 450 nm (reference wavelength: 655 nm).
# [7] = Stability of catalyst in neutral phosphate buffer without or under light irradiation (HPLC), Test Example 5; type: physicochemical; conditions: under light irradiation (660 nm)
# Method: A neutral phosphate buffer containing a catalyst was incubated without light irradiation or under light irradiation (660 nm), and thereafter ethanol containing benzyl alcohol (as an internal standard) was added thereto, and analysis was performed by using HPLC.
smiles,measurement,setting,value
CN(C)c1ccc(/C=C/C2=C(Br)C(/C=C/c3ccc4c(c3)CCCN4CCCCCC(=O)O)=[O+][B-](F)(C(F)(F)F)O2)cc1 (centres unmarked) [Compound K],benzoylmethionine/oxygenated form ratio (%),[1],"higher as the concentration of glycerol, which has high viscosity, was higher"
same,Degree of oxygenation (%) of Aβ42 (λ = 660 nm),Aβ1-42 [2],86%
same,CC50,"PC 12 cells [3]; PC 12 cells in dark, read-out: LC50 (dark)",1890 nM
same,CC50,"PC 12 cells [3]; PC 12 cells, light irradiation 660 nm, read-out: LC50 (light)",143 nM
same,oxygenation of Aβ1-42 under light irradiation,Aβ1-42 [4],oxygenation of the Aβ proceeded
same,Maximum wavelength λmax (nm),[5],620 nm
same,toxicity under light irradiation (ranking),PC 12 cells [6],"higher in the order of the compound J, the compound K, and the compound L; also recorded: iodine provides more reduced toxicity than in the case of bromine"
same,stability of catalyst (ranking),[7],higher in the order of BFCF3 (compound K)<BFCF2CF3 (compound J)
